Data on 29 compounds can be found in patent US7348347B2, “Substituted 4,5,6,7-tetrahydrobenzthiazol-2-ylamine compounds” (Gruenenthal GmbH, priority 2004, dated 2008).

T1 sequence (P31652 whole entry): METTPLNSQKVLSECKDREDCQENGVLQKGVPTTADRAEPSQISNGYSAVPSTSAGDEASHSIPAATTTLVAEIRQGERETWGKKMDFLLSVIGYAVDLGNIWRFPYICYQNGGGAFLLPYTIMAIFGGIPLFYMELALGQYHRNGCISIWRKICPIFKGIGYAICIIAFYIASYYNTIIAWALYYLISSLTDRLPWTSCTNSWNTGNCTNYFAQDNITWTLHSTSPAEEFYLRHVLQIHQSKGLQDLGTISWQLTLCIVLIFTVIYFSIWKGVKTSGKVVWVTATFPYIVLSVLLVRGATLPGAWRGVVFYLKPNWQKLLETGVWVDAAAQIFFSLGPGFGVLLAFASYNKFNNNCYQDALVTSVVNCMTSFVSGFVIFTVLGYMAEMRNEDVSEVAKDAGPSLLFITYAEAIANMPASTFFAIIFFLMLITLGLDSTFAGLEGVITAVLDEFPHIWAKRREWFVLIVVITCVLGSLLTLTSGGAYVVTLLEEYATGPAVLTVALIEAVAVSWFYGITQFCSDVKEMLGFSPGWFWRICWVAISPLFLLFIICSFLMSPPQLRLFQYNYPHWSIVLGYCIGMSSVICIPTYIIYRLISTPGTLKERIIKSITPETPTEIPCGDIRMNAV

One experiment has as its target T1, 5-HT uptake (Rattus norvegicus, UniProt P31652).
T1 construct: from tissue; host or cells: rat brain synaptosomes (P2 fraction) from marrow (medulla) and pons
In words: Inhibition of 5-HT uptake in rat brain synaptosomes. The class given is biochemical. Particulars: rat synaptosomes (and pons), [3H]-5-HT. As to the method: The relevant literature reference is enclosed herein by reference and is to be regarded as part of the disclosure.
The homogenate is centrifuged at 4° C. for 10 minutes at 1000 g. Following subsequent centrifugation at 17,000 g for 55 minutes, the synaptosomes (P2 fraction) are obtained, which are then resuspended in 0.32 M […] (0.5 mL/100 mg of the original weight).
The respective uptake was measured in a 96 well microtiter plate. The volume was 250 μL and the incubation was carried out at room temperature (ca 20-25° C.) under a blanket of oxygen.
The 96 samples through were then filtered through a Unifilter GF/B® microtiter plate (Packard) and washed with 200 mL of incubated buffer with the aid of a “Brabdel Cell-Harvester MPXRI 96T”. The Unifilter GF/B plate was dried at 55° C. over a period of 1 h. The plate was then sealed with a back seal® (Packard) and there were then added 35 μL of scintillant fluid per well (Ultima Gold, Packard).
A detailed description of the method is disclosed in the literature, for example, in M. Ch.
Take “2-[2-(3,5-Difluorophenyl)acetylamino]-4,5,6,7-tetrahydrobenzthiazol-4-carboxylic acid[1-(2-ethoxybenzyl)pyrrolidin-3-yl]methylamide [Example 44]”: the “% Inhibition of 5-HT uptake [10 μM]” value amounted to 41%. Still for that read-out and setting: in the case of `CN1CCCN(C(=O)C2CCCc3sc(NC(=O)COc4ccccc4)nc32)CC1` (centres unmarked) [Example 2, N-[4-(4-Methyl-[1,4]diazepam-1-carbonyl)-4,5,6,7-tetrahydrobenzthiazol-2-yl]-2-phenoxy acetamide] it was 58%.

The same experiment, now with this note: rat synaptosomes (medulla and pons), [3H]-5-HT.
The compound `CN(C)CCN1CCN(C(=O)C2CCCc3sc(NC(=O)CC4CCCCC4)nc32)CC1` (centres unmarked) [Example 1, 2-Cyclohexyl-N-{4-[4-(2-Dimethylaminoethyl)piperazin-1-carbonyl]-4,5,6,7-tetrahydrobenzthiazol-2-yl}acetamide] had an inhibition at 10 µM of 65%. Regarding `CN1CCN(C(=O)C2CCCc3sc(NC(=O)c4ccc5ccccc5c4)nc32)CC1` (centres unmarked) [Example 4, Naphthalene-2-carboxylic acid[4-(4-methylpiperazin-1-carbonyl)-4,5,6,7-tetrahydrobenzthiazol-2-yl]amide], the “% Inhibition of 5-HT uptake [10 μM]” value is given as 48%. On to `O=C(Cc1cccs1)Nc1nc2c(s1)CCCC2C(=O)N1CCCC1CN1CCCC1` (centres unmarked) [Example 5, N-[4-(2-Pyrrolidin-1-ylmethylpyrrolidin-1-carbonyl)-4,5,6,7-tetrahydrobenzthiazol-2-yl]-2-thiophen-2-ylacetamide], for which the inhibition at 10 µM stood at 41%. Same read-out and setting: in the case of `COc1ccccc1CC(=O)Nc1nc2c(s1)CCCC2C(=O)N1CCN(Cc2cc(OC)c3c(c2)OCO3)CC1` (centres unmarked) [Example 6, N-{4-[4-(7-Methoxybenzo[1, 3]dioxol-5-ylmethyl)piperazin-1-carbonyl]-4,5,6,7-tetrahydrobenzthiazol-2-yl}-2-(2-methoxyphenyl)acetamide] it was 51%; in that of `CC1CCCCN1CCCNC(=O)C1CCCc2sc(NC(=O)C=Cc3ccco3)nc21` (centres unmarked) [Example 23, 2-(3-Furan-2-ylacryloylamino)-4,5,6,7-tetrahydrobenzthiazol-4-carboxylic acid [3-(2-methylpiperidin-1-yl)propyl]amid], 57%; in that of `CN(C)CCCNC(=O)C1CCCc2sc(NC(=O)CC(C)(C)C)nc21` (centres unmarked) [Example 24, 2-(3,3-Dimethylbutyrylamino)-4,5,6,7-tetrahydrobenzthiazol-4-carboxylic acid(3-dimethylaminopropyl)amide], 89%. `COc1ccc(C(=O)Nc2nc3c(s2)CCCC3C(=O)N2CCN(Cc3ccc(Cl)cc3)CC2)cc1` (centres unmarked) [Example 25, N-{4-[4-(4-Chlorobenzyl)piperazin-1-carbonyl]-4,5,6,7-tetrahydrobenzthiazol-2-yl}-4-methoxybenzamide] registered an inhibition at 10 µM of 53%. For `O=C(Nc1nc2c(s1)CCCC2C(=O)N1CCCC1CN1CCCC1)c1ccc2ccccc2c1` (centres unmarked) [Example 26, Naphthalene-2-carboxylic acid[4-(2-pyrrolidin-1-ylmethylpyrrolidin-1-carbonyl)-4,5,6,7-tetrahydrobenzthiazol-2-yl]amide], the “% Inhibition of 5-HT uptake [10 μM]” value stood at 80%. `CN(C)CCNC(=O)C1CCCc2sc(NC(=O)COc3ccccc3)nc21` (centres unmarked) [Example 30, 2-(2-Phenoxyacetylamino)-4,5,6,7-tetrahydrobenzthiazol-4-carboxylic acid(2-dimethylaminoethyl)amide]: the “% Inhibition of 5-HT uptake [10 μM]” value was 64%. Compound `CCOc1ccccc1C(=O)Nc1nc2c(s1)CCCC2C(=O)N1CCCC1CN1CCCC1` (centres unmarked) [Example 31, 2-Ethoxy-N-[4-(2-pyrrolidin-1-ylmethylpyrrolidin-1-carbonyl)-4,5,6,7-tetrahydrobenzthiazol-2-yl]benzamide] had an inhibition at 10 µM of 59%. `O=C(Nc1nc2c(s1)CCCC2C(=O)N1CCN(CC(=O)N2CCCC2)CC1)c1ccc2ccccc2c1` (centres unmarked) [Example 32, Naphthalene-2-carboxylic acid{4-[4-(2-oxo-2-pyrrolidin-1-ylethyl)piperazin-1-carbonyl]-4,5,6,7-tetrahydrobenzthiazol-2-yl}amide]: the “% Inhibition of 5-HT uptake [10 μM]” value stood at 51%. Same read-out and setting: under `Cc1cc(C)cc(C(=O)Nc2nc3c(s2)CCCC3C(=O)NC2CCN(Cc3ccccc3SC(C)(C)C)C2)c1` (centres unmarked) [Example 35] stands 41%. As for `CC=CC=CC(=O)Nc1nc2c(s1)CCCC2C(=O)NCC1CCN(Cc2ccc(-c3ccccc3)cc2)C1` (centres unmarked) [Example 37, 2-Hexa-2,4-dienoylamino-4,5,6,7-tetrahydrobenzthiazol-4-carboxylic acid (1-biphenyl-4-ylmethylpyrrolidin-3-yl)methylamide], the inhibition at 10 µM worked out at 44%. Turning to `CCCCCCNc1nc2c(s1)CCCC2C(=O)N(C)C1CCN(Cc2cc3ccccc3o2)C1` (centres unmarked) [Example 41, 2-Hexanylamino-4,5,6,7-tetrahydrobenzthiazol-4-carboxylic acid(1-benzofuran-2-ylmethylpyrrolidin-3-yl)methylamide], the “% Inhibition of 5-HT uptake [10 μM]” value is 77%. On to `CC1CCCCN1CCCNC(=O)C1CCCc2sc(NC(=O)COc3ccccc3)nc21` (centres unmarked) [Example 42, 2-(2-Phenoxyacetylamino)-4,5,6,7-tetrahydrobenzthiazol-4-carboxylic acid[3-(2-methylpiperidin-1-yl)propyl]amide], for which the “% Inhibition of 5-HT uptake [10 μM]” value is recorded as 42%.

`O=C(Nc1nc2c(s1)CCCC2C(=O)NCCN1CCCC1)c1ccc2ccccc2c1` (centres unmarked) [Example 43, 2-[(Naphthalene-2-carbonyl)amino]-4,5,6,7-tetrahydrobenzthiazol-4-carboxylic acid (2-pyrrolidin-1-ylethyl)amide]: testing at 10 µM gave an inhibition of 63%. Same read-out and setting: under `CN(C)c1ccc(CNC(=O)C2CCCc3sc(NC(=O)c4ccc5ccccc5c4)nc32)cc1` (centres unmarked) [Example 45, 2-[(Naphthalene-2-carbonyl)amino]-4,5,6,7-tetrahydrobenzthiazol-4-carboxylic acid 4-dimethylaminobenzylamide] stands 42%. On to `CN1CCCC1CCNC(=O)C1CCCc2sc(NC(=O)COc3ccc(F)cc3)nc21` (centres unmarked) [Example 46, 2-[2-(4-Fluorophenoxy)acetylamino]-4,5,6,7-tetrahydrobenzthiazol-4-carboxylic acid[2-(1-methylpyrrolidin-2-yl)ethyl]amide], for which the “% Inhibition of 5-HT uptake [10 μM]” value was found to be 53%.

As to `CCOc1ccccc1CN1CCC(CNC(=O)C2CCCc3sc(NC(=O)COc4ccccc4)nc32)C1` (centres unmarked) [Example 51, 2-(2-Phenoxyacetylamino)-4,5,6,7-tetrahydrobenzthiazol-4-carboxylic acid[1-(2-ethoxybenzyl)pyrrolidin-3-yl]methylamide], the “% Inhibition of 5-HT uptake [10 μM]” value is 59%.

With `O=C(Nc1nc2c(s1)CCCC2C(=O)N1CCN(Cc2ccccc2F)CC1)c1ccc2ccccc2c1` (centres unmarked) [Example 53, Naphthalene-2-carboxylic acid{4-[4-(2-fluorobenzyl)piperazin-1-carbonyl]-4,5,6,7-tetrahydrobenzthiazol-2-yl}amide], the “% Inhibition of 5-HT uptake [10 μM]” value is given as 42%. `O=C(Cc1cc(F)cc(F)c1)Nc1nc2c(s1)CCCC2C(=O)N1CCCC1CN1CCCC1` (centres unmarked) [Example 57, 2-(3,5-Difluorophenyl)-N-[4-(2-pyrrolidin-1-ylmethylpyrrolidin-1-carbonyl)-4,5,6,7-tetrahydrobenzthiazol-2-yl]acetamide] displayed an inhibition at 10 µM of 72%.

Take `CCCCCC(=O)Nc1nc2c(s1)CCCC2C(=O)N1CCN(Cc2ccc(OC)c(F)c2)CC1` (centres unmarked) [Example 59, Hexanoic acid{4-[4-(3-fluoro-4-methoxybenzyl)piperazin-1-carbonyl]-4,5,6,7-tetrahydrobenzthiazol-2-yl}amide]: the “% Inhibition of 5-HT uptake [10 μM]” value is reported as 46%. Same read-out and setting: in the case of `O=C(Cc1cc(F)cc(F)c1)Nc1nc2c(s1)CCCC2C(=O)NCC1CCN(Cc2c(Cl)cccc2Cl)C1` (centres unmarked) [Example 62, 2-[2-(3,5-Difluorophenyl)acetylamino]-4,5,6,7-tetrahydrobenzthiazol-4-carboxylic acid[1-(2,6-dichlorobenzyl)pyrrolidin-3-yl]methylamide] it was 53%. `CCCCCC(=O)Nc1nc2c(s1)CCCC2C(=O)N1CCN(Cc2cc3ccccc3o2)CC1` (centres unmarked) [Example 65, Hexanoic acid[4-(4-benzofuran-2-ylmethylpiperazin-1-carbonyl)-4,5,6,7-tetrahydrobenzthiazol-2-yl]amide]: the “% Inhibition of 5-HT uptake [10 μM]” value is on record as 44%. In turn, `CN(CCCNC(=O)C1CCCc2sc(NC(=O)CC3CCCCC3)nc21)c1ccccc1` (centres unmarked) [Example 68, 2-(2-Cyclohexylacetylamino)-4,5,6,7-tetrahydrobenzthiazol-4-carboxylic acid [3-(methylphenyl-amino)propyl]amide] showed an inhibition at 10 µM of 84%.

Turning to `CCOc1ccccc1C(=O)Nc1nc2c(s1)CCCC2C(=O)NCCCN(C)c1ccccc1` (centres unmarked) [Example 69, 2-(2-Ethoxybenzoylamino)-4,5,6,7-tetrahydrobenzthiazol-4-carboxylic acid[3-(methylphenyl-amino)propyl]amide], the “% Inhibition of 5-HT uptake [10 μM]” value was found to be 80%. In turn, `O=C(CCc1ccccc1)Nc1nc2c(s1)CCCC2C(=O)N1CCN(c2ccc(C(F)(F)F)cn2)CC1` (centres unmarked) [Example 70, 3-Phenyl-N-{4-[4-(5-trifluoromethylpyridin-2-yl)piperazin-1-carbonyl]-4,5,6,7-tetrahydrobenzthiazol-2-yl}propionamide] returned an inhibition at 10 µM of 44%.
